Source: patent publication US9315458B2, “Nitrogen-containing heterocyclic compound” (Takeda Pharmaceutical Company Limited, priority 2014, dated 2016)

Biological target: T1, human M1 receptor (hCHRM1) (Homo sapiens, UniProt P11229)
T1 construct: expressed in transfected cells
T1 sequence (P11229 1-460): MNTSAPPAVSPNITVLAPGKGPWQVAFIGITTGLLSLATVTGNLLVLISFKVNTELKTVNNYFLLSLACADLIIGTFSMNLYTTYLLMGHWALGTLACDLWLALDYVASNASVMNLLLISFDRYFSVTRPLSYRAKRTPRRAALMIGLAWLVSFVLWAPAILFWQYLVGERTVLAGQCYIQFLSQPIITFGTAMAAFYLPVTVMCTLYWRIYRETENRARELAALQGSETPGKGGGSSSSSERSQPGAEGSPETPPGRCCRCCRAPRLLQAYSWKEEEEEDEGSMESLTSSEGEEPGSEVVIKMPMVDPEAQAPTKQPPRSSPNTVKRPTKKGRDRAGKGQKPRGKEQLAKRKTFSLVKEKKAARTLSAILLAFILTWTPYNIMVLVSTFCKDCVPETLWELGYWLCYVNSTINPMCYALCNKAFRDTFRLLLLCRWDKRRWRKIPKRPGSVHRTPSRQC
Test: Measurement of M1 receptor positive allosteric modulator (M1PAM) activity, calcium fluorescence (FLIPRtetra) with acetylcholine at EC20
Assay type: cell-based
Conditions: for activity (%) at 10 μM: 10 μM test compound, 100% = acetylcholine 1 μM, 0% = DMSO, acetylcholine at EC20; for EC50: inflection point of concentration-dependent curve, CHO-K1 cells expressing hCHRM1, acetylcholine at EC20 (final 0.6-0.8 nM), read-out: IP value
Outline: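 CHO-K1 cells stably expressing hCHRM1, Fluo-4 AM loaded; compound added with acetylcholine at EC20 (final 0.6-0.8 nM), fluorescence read 1 min. Activity normalised to 1 μM acetylcholine (100%) and DMSO (0%); IP values taken as inflection point of the concentration-response curve.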

Row | SMILES | activity (%) at 10 μM [%] | EC50 [µM]
1 | CCc1cc2c(cc1Cc1ccc(-c3ccn(C)n3)cc1)C(=O)N([C@H]1CCC[C@@H]1O)C2 [Example 120, 5-ethyl-2-((1S,2S)-2-hydroxycyclopentyl)-6-(4-(1-methyl-1H-pyrazol-3-yl)benzyl)isoindolin-1-one] | 93 | 0.025
2 | Cc1c(Cc2ccc(-n3cccn3)cc2F)cc2c(c1C)CN(CC(C)(C)O)C2=O [Example 121, 6-(2-fluoro-4-(1H-pyrazol-1-yl)benzyl)-2-(2-hydroxy-2-methylpropyl)-4,5-dimethylisoindolin-1-one] | 89 | 0.022
3 | Cc1c(Cc2ccc(C#N)cc2F)cc2c(c1C)CN([C@H]1CCC[C@@H]1O)C2=O [Example 125, 3-fluoro-4-((2-((1S,2S)-2-hydroxycyclopentyl)-6,7-dimethyl-3-oxo-2,3-dihydro-1H-isoindol-5-yl)benzyl)benzonitrile] | 93 | 0.073
4 | Cc1c(Cc2ccc(-n3cccn3)cc2)cc2c(c1F)CN(CC(C)(C)O)C2=O [Example 127, 4-fluoro-2-(2-hydroxy-2-methylpropyl)-5-methyl-6-(4-(1H-pyrazol-1-yl)benzyl)isoindolin-1-one] | 104 | 0.059
5 | CCc1cc2c(cc1Cc1ccc(-n3cccn3)cc1)C(=O)N(CC(C)(C)O)C2 [Example 129, 5-ethyl-2-(2-hydroxy-2-methylpropyl)-6-(4-(1H-pyrazol-1-yl)benzyl)isoindolin-1-one] | 100 | 0.053

Now those with a lower EC50, led by results:

Row | activity (%) at 10 μM [%] | EC50 [µM] | SMILES
6 | 91 | 0.0031 | CCc1cc2c(cc1Cc1ccc(-c3cn(C)nn3)cc1)C(=O)N([C@H]1CCC[C@@H]1O)C2 [Example 119, 5-ethyl-2-((1S,2S)-2-hydroxycyclopentyl)-6-(4-(1-methyl-1H-1,2,3-triazol-4-yl)benzyl)isoindolin-1-one]
7 | 90 | 0.0021 | CNC(=O)c1ccc(Cc2cc3c(c(C)c2C)CN([C@H]2CCC[C@@H]2O)C3=O)cc1F [Example 123, 2-fluoro-4-((2-((1S,2S)-2-hydroxycyclopentyl)-6,7-dimethyl-3-oxo-2,3-dihydro-1H-isoindol-5-yl)methyl)-N-methylbenzamide]
8 | 86 | 0.016 | Cc1c(Cc2ccc(C#N)cc2F)cc2c(c1C)CN([C@H]1COCC[C@@H]1O)C2=O [Example 124, 3-fluoro-4-({2-[(3S,4S)-4-hydroxytetrahydro-2H-pyran-3-yl]-6,7-dimethyl-3-oxo-2,3-dihydro-1H-isoindol-5-yl}methyl)benzonitrile]
9 | 97 | 0.005 | CCc1cc2c(cc1Cc1ccc(-n3cccn3)cc1)C(=O)N([C@H]1COCC[C@@H]1O)C2 [Example 128, 5-ethyl-2-[(3S,4S)-4-hydroxytetrahydro-2H-pyran-3-yl]-6-[4-(1H-pyrazol-1-yl)benzyl]-2,3-dihydro-1H-isoindol-1-one]
10 | 94 | 0.0022 | Cc1c(Cc2ccc(-n3cccn3)cc2)cc2c(c1Cl)CN([C@H]1COCC[C@@H]1O)C2=O [Example 130, 4-chloro-2-[(3S,4S)-4-hydroxytetrahydro-2H-pyran-3-yl]-5-methyl-6-[4-(1H-pyrazol-1-yl)benzyl]-2,3-dihydro-1H-isoindol-1-one]
11 | 100 | 0.012 | Cc1c(Cc2ccc(-n3cccn3)cc2)cc2c(c1Cl)CN([C@H]1CCC[C@@H]1O)C2=O [Example 131, 4-chloro-2-((1S,2S)-2-hydroxycyclopentyl)-5-methyl-6-(4-(1H-pyrazol-1-yl)benzyl)isoindolin-1-one]
12 | 87 | 0.0073 | Cc1c(Cc2ccc(-n3cccn3)cc2)cc2c(c1Cl)CN(CC(C)(C)O)C2=O [Example 132, 4-chloro-2-(2-hydroxy-2-methylpropyl)-5-methyl-6-(4-(1H-pyrazol-1-yl)benzyl)isoindolin-1-one]
